According to ChEMBL document CHEMBL1201862, “PubChem BioAssay data set” (2004):
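Dose response: 5 concentrations. Exposure: 48 h. Format: 96-well plates. Endpoint: linear interpolation; highest concentration if not reached. Abbreviation: GI50, concentration required for 50% inhibition of growth.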 Calls of active or inactive are those of the source. Rule as the data show it: active = GI50 up to about 1.1 µM and inactive = higher.

Tests used:
Experiment in all cases: NCI anticancer screen, dose series, 48 h
XF498 = system: XF498
BT-549 = system: BT-549
SNB-78 = system: SNB-78
M19-MEL = system: M19-MEL
MDA-N = system: MDA-N
T47D = system: T47D
DLD-1 = system: DLD-1
RXF 631 = system: RXF 631
NCI/ADR-RES = system: NCI/ADR-RES

Structure (SMILES)	GI50 (XF498)	GI50 (BT-549)	GI50 (SNB-78)	GI50 (M19-MEL)	GI50 (MDA-N)	GI50 (T47D)	GI50 (DLD-1)	GI50 (RXF 631)	GI50 (NCI/ADR-RES)
NCc1ccc(O)c(O)c1O	26.9 µM (inactive)	18.4 µM (inactive)	> 65.9 µM (inactive)	12.8 µM (inactive)	> 10 µM (inactive)	26.2 µM (inactive)	20.3 µM (inactive)	–	–
CC1C(=O)CCC1C(Sc1ccccc1)(Sc1ccccc1)Sc1ccccc1 (stereo not drawn)	24.7 µM (inactive)	–	37.8 µM (inactive)	21.1 µM (inactive)	–	–	28.8 µM (inactive)	25.9 µM (inactive)	–
Cc1c(C(=O)Nc2ccc(Cl)cc2)nc(N)nc1-c1cccc(Cl)c1	–	–	> 100 µM (inactive)	> 100 µM (inactive)	–	–	> 100 µM (inactive)	52.1 µM (inactive)	–
Cc1ccc(C)c(NC(=O)c2cccc([N+](=O)[O-])c2O)c1	23.2 µM (inactive)	–	14.1 µM (inactive)	24.7 µM (inactive)	–	–	27.8 µM (inactive)	–	–
CC(=O)OC1(C#N)CC2OC1C1NC21 (stereo not drawn)	> 100 µM (inactive)	–	> 100 µM (inactive)	> 100 µM (inactive)	–	–	> 100 µM (inactive)	> 100 µM (inactive)	–
CCc1cccc(C(C)CC)c1NC(=O)CC1C(=O)Nc2ccccc2[S+]1[O-] (stereo not drawn)	–	–	28.8 µM (inactive)	32.8 µM (inactive)	–	–	32.8 µM (inactive)	36.1 µM (inactive)	–
COc1cc2c(c(OC)c1OC)-c1ccc(SC)c(=O)cc1[C@@H](NC(=O)c1ccc([N+](=O)[O-])cc1)CC2	0.00746 µM (active)	–	< 0.0025 µM (active)	0.0195 µM (active)	–	–	< 0.0025 µM (active)	< 0.01 µM (active)	–
N#CC(C#N)=Cc1cccc(Oc2ccccc2)c1	20.2 µM (inactive)	–	29.2 µM (inactive)	27.5 µM (inactive)	–	–	22.5 µM (inactive)	–	–
C/C(=N\N=C(/S)N1CC2CCC(CC2)C1)c1cccc[n+]1[O-]	21.4 µM (inactive)	–	8.34 µM (inactive)	3.58 µM (inactive)	14.2 µM (inactive)	22.6 µM (inactive)	2.06 µM (inactive)	3.45 µM (inactive)	3.09 µM (inactive)
CC(=O)C1(O)CCC2(O)C3(O)CC=C4CC(O)CCC4(C)C3CC(OC(=O)c3ccc(O)cc3)C12C.COC1CC(OC2C(C)OC(OC3C(C)OC(OC4CCC5(C)C(=CCC6(O)C5CC(OC(=O)c5ccc(O)cc5)C5(C)C(O)(C(C)=O)CCC65O)C4)CC3OC)CC2OC)OC(C)C1O (stereo not drawn)	2.03 µM (inactive)	–	20.6 µM (inactive)	35.5 µM (inactive)	–	–	36.6 µM (inactive)	76 µM (inactive)	–
COC[C@@H](/N=C/N1CCc2cc(OC)c(OC)cc2[C@@H]1C)C(C)(C)C	> 100 µM (inactive)	–	–	> 100 µM (inactive)	–	–	> 100 µM (inactive)	> 100 µM (inactive)	–
COc1ccc2c(c1)[n+]([O-])c(-c1ccc([N+](=O)[O-])cc1)c(N)[n+]2[O-]	–	–	96.4 µM (inactive)	–	–	–	63.1 µM (inactive)	> 100 µM (inactive)	–
Nc1ccccc1S(=O)(=O)N(CC(=O)O)c1ccccc1	> 100 µM (inactive)	–	–	> 100 µM (inactive)	–	–	> 100 µM (inactive)	> 100 µM (inactive)	–
C/C(=N\NC(=S)N1CCN(c2ccccn2)CC1)c1ccccn1	0.000206 µM (active)	0.01 µM (active)	5.38 µM (inactive)	1.01 µM (active)	0.167 µM (active)	0.107 µM (active)	0.000509 µM (active)	–	–
O=C(NC1CCC[C@H]1OC(=O)c1ccccc1)c1ccccc1 (stereo partly drawn)	35.3 µM (inactive)	–	> 100 µM (inactive)	> 100 µM (inactive)	–	–	24.4 µM (inactive)	66.8 µM (inactive)	–
O=C(/C=C/c1cccc([N+](=O)[O-])c1)c1cccnc1	35.8 µM (inactive)	–	41.2 µM (inactive)	31.2 µM (inactive)	–	–	20.3 µM (inactive)	–	–
O=c1cccccc1NCCCCNc1cccccc1=O	–	–	> 100 µM (inactive)	83.2 µM (inactive)	–	–	57.3 µM (inactive)	> 100 µM (inactive)	–
COC(=O)C(=O)CC(=O)CCn1ncc(Cl)c(Cl)c1=O	29 µM (inactive)	–	20.5 µM (inactive)	4.01 µM (inactive)	–	–	10.3 µM (inactive)	8.55 µM (inactive)	–
CC(C)NC(=O)O/N=C1\CCC2[C@@H]3CC=C4C[C@@H](OC(=O)NC(C)C)CC[C@]4(C)C3CC[C@]12C (stereo partly drawn)	–	–	2.29 µM (inactive)	1.29 µM (inactive)	–	–	2.53 µM (inactive)	1.32 µM (inactive)	–
Oc1cccnc1/C=N/OCc1ccccc1	29 µM (inactive)	–	> 100 µM (inactive)	> 100 µM (inactive)	–	–	> 100 µM (inactive)	–	–
O=C(CCc1nnc2s/c(=C\c3ccccc3[N+](=O)[O-])c(=O)n12)Nc1cc(Cl)c(Cl)cc1Cl	22.6 µM (inactive)	–	35.2 µM (inactive)	43.2 µM (inactive)	–	–	25.2 µM (inactive)	47.1 µM (inactive)	–
Nc1c(Cl)ncnc1NCCCCCCCCCCCCNc1ncnc(Cl)c1N	0.593 µM (active)	–	0.137 µM (active)	2.59 µM (inactive)	–	–	2.73 µM (inactive)	1.94 µM (inactive)	–
CCC1(CN(C)C)CC/C(=C\c2ccc(OC)c(OC)c2)C1=O (stereo not drawn)	> 100 µM (inactive)	–	> 100 µM (inactive)	> 100 µM (inactive)	–	–	> 80.7 µM (inactive)	> 100 µM (inactive)	–
CC(=O)NC(CCCCNCc1ccccc1)C(=O)NCc1ccccc1 (stereo not drawn)	> 100 µM (inactive)	–	> 100 µM (inactive)	> 100 µM (inactive)	–	–	> 100 µM (inactive)	–	–
Cc1ccccc1N(CCC#N)C1=NN(C(=O)CC(=O)Nc2ccc(Cl)cc2)C(c2ccccc2)C1 (stereo not drawn)	–	–	> 100 µM (inactive)	> 100 µM (inactive)	–	–	> 100 µM (inactive)	> 100 µM (inactive)	–
